# Values quoted from earlier work, collected in article PMC7670640 (Pharmacology Research & Perspectives, 2020).
# Conditions: prior terminated phase IIb clinical trial; cited from earlier work
compound,measurement,value
C=C(C)[C@@H]1CC[C@]2(NCCN3CCS(=O)(=O)CC3)CC[C@]3(C)[C@H](CC[C@@H]4[C@@]5(C)CC=C(c6ccc(C(=O)O)cc6)C(C)(C)[C@@H]5CC[C@]43C)[C@@H]12 [GSK3532795],GI intolerability,GI intolerability (predominantly abdominal pain and diarrhea)
